Experimental data as given in patent EP1388586A2, “Identification of broadly reactive DR restricted epitopes” (priority 1998, dated 1999).
Read-outs that look alike come from different tables or passages of the source. Square brackets hold non-standard residues; d marks the D form. Ends that are not written are not given here. Peptide text beside a SMILES is read from it.

What was measured:
DRB1*0301 (DR3w17) = target: T1, DRB1*0301 (DR3w17) (Homo sapiens, UniProt P01903+P01911, A100K/A102G/A103R/A169T/F55Y/I96L/K41T/L162R/M171V/P40S/Q125H/Q178H/Q39Y/R42S/S66N/T106N/T262R/W38E/Y61H); assay: Class II peptide-binding assay, DR3 (pH 4.5);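 further: unlabeled peptide competing with a radiolabeled probe peptide for binding to affinity-purified HLA-DR3, IC50 regarded as an approximation of Kd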
T1 construct: used as sources of human HLA class II molecules; endogenous in cells; host or cells: MAT (EBV-transformed homozygous B cell line)
T1 sequence (P01903 26-254, other chains not shown): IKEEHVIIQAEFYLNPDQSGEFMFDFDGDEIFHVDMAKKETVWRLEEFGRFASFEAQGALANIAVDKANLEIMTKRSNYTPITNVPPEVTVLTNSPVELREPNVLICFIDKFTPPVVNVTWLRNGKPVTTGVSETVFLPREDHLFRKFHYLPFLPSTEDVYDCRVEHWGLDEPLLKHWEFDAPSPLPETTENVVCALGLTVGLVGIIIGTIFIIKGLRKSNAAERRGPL
Protocol: (§1) Class II peptide-binding assays. […] These assays were chosen as to be representative of the most common DR alleles.
In appropriate stoichiometric conditions, the IC50 of an unlabeled test peptide to the purified DR is a reasonable approximation of the affinity of interaction (Kd). Peptides were tested in two to four completely independent experiments. […] Final detergent concentration in the incubation mixture was 0.05% Nonidet P-40. Assays were performed at pH 7.0 with the exception of DR3, which was performed at pH 4.5, and DRw53, which was performed at pH 5.0.
(§2) All subsequent inhibition and direct binding assays were the performed using these class II concentrations.

DRB1*1101 (DR5w11) = target: T2, DRB1*1101 (DR5w11) (Homo sapiens, UniProt P01903+P01911, A100R/A169T/A87E/I96F/K41T/L162R/M171V/P40S/Q125H/Q178H/Q39Y/Q99D/R42S/S66Y/T262R/V115G/W38E); assay: Class II peptide-binding assay, DR5w11;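 further: competition by unlabeled test peptide against iodinated probe peptide binding to affinity-purified HLA-DR, class II amount titrated beforehand, half-maximal inhibitory concentration read as approximate Kd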
T2 construct: used as sources of human HLA class II molecules; endogenous in cells; host or cells: SWEIG (EBV-transformed homozygous B cell line)
T2 sequence (P01903 26-254, other chains not shown): as above
Protocol: as §1
Radiolabeled peptides were iodinated using the chloramine-T method. […] In appropriate stoichiometric conditions, the IC50 of an unlabeled test peptide to the purified DR is a reasonable approximation of the affinity of interaction (Kd). Peptides were tested in two to four completely independent experiments. […] Final detergent concentration in the incubation mixture was 0.05% Nonidet P-40. Assays were performed at pH 7.0 with the exception of DR3, which was performed at pH 4.5, and DRw53, which was performed at pH 5.0.
as §2

DRB5*0101 (DR2w2a) = target: T3, DRB5*0101 (DR2w2a) (Homo sapiens, UniProt P01903+Q30154); assay: Class II peptide-binding assay, DR2w2a (DR2w2B2);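 further: competitive binding assay: unlabeled peptide inhibiting binding of a radiolabeled probe peptide to purified DR molecules at pH 7.0, IC50 approximating Kd, lower means stronger binding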
T3 construct: used as sources of human HLA class II molecules; endogenous in cells; host or cells: GM3107 (EBV-transformed homozygous B cell line)

DRB1*0101 (DR1) = target: T4, DRB1*0101 (DR1) (Homo sapiens, UniProt P01903+P01911, A100R/D57E/F55L/F60I/F76Y/I96L/L162R/M171V/P40L/Q125E/R42F/V115G/Y59C); assay: Class II peptide-binding assay, DR1;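 further: competition assay: unlabeled test peptides inhibit binding of a radiolabeled probe peptide to purified DR, with half-maximal inhibition taken as an approximate dissociation constant Kd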
T4 construct: used as sources of human HLA class II molecules; endogenous in cells; host or cells: LG2 (EBV-transformed homozygous B cell line)

DRB1*0401 (DR4w4) = target: T5, DRB1*0401 (DR4w4) (Homo sapiens, UniProt P01903+P01911, A100K/A169T/F76Y/I96L/K127E/L162R/M171V/N62H/P40V/Q125Y/R42H/S133A/S149N/S66Y/V115G/V209L/W38E); assay: Class II peptide-binding assay, DR4w4;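 further: unlabeled test peptides compete with a radiolabeled probe peptide for binding to affinity-purified HLA-DR, with DR amount titrated to capture a small fraction of label, IC50 approximating Kd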
T5 construct: used as sources of human HLA class II molecules; endogenous in cells; host or cells: PREISS (EBV-transformed homozygous B cell line)

DRB10404 (DR4w14) = target: T6, DRB10404 (DR4w14) (Homo sapiens, UniProt P01903+P01911, A100R/A169T/F76Y/I96L/K127E/L162R/M171V/N62H/P40V/Q125Y/R42H/S133A/S149N/S66Y/V209L/W38E); assay: Class II peptide-binding assay, DR4w14;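 further: unlabeled peptides compete with a radiolabeled probe for binding to affinity-purified HLA-DR, neutral pH, class II amount titrated to bind a small fraction of label, IC50 approximates Kd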
T6 construct: used as sources of human HLA class II molecules; endogenous in cells; host or cells: BIN40 (EBV-transformed homozygous B cell line)

DRB1*0701 (DR7) = DRB1*0701 (DR7) (Homo sapiens, UniProt P01903+P01911, A100R/A102G/A103Q/D57E/D86V/E43K/F76Y/K127E/L162R/M171V/P40G/Q125H/Q99D/R33Q/R42Y/R54Q/S133A/S66F/T210M/V115G/Y107V/Y59L/Y89S); assay: Class II peptide-binding assay, DR7;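 further: unlabeled peptides compete with an iodinated probe peptide for binding to affinity-purified HLA-DR at neutral pH, DR amount titered to bind a small tracer fraction, IC50 approximating Kd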
[1] = read-out: DR3 nM, Table VIII, In IC50 Format
[2] = read-out: DR5w11 nM, Table VIII, In IC50 Format
[3] = read-out: DR2w2B2 nM, Table VIII, In IC50 Format
[4] = read-out: DR1 nM, Table VIII, In IC50 Format
[5] = read-out: DR4w4 nM, Table VIII, In IC50 Format
[6] = read-out: DR4w14 nM, Table VIII, In IC50 Format
[7] = read-out: DR7 nM, Table VIII, In IC50 Format
[8] = read-out: DR3 nM (In IC50 Format), purified HLA DR3
[9] = read-out: DR5w11 nM (In IC50 Format), purified HLA DR5w11
[10] = read-out: DR2w2B2 nM (In IC50 Format), purified HLA DR2w2β2
[11] = read-out: DR1 nM (In IC50 Format), purified HLA DR1
[12] = read-out: DR4w4 nM (In IC50 Format), purified HLA DR4w4
[13] = read-out: DR4w14 nM (In IC50 Format), purified HLA DR4w14
[14] = read-out: DR7 nM (In IC50 Format), purified HLA DR7
[15] = read-out: In IC50 Format DR3, Table VIII
[16] = read-out: In IC50 Format DR5w11, Table VIII
[17] = read-out: In IC50 Format DR2w2β2, Table VIII
[18] = read-out: In IC50 Format DR1, Table VIII
[19] = read-out: In IC50 Format DR4w4, Table VIII
[20] = read-out: In IC50 Format DR4w14, Table VIII
[21] = read-out: In IC50 Format DR7, Table VIII

Row | Molecule | IC50 (DRB1*0301 (DR3w17); [8]) | IC50 (DRB1*1101 (DR5w11); [9]) | IC50 (DRB5*0101 (DR2w2a); [10]) | IC50 (DRB1*0101 (DR1); [11]) | IC50 (DRB1*0401 (DR4w4); [12]) | IC50 (DRB10404 (DR4w14); [13]) | IC50 (DRB1*0701 (DR7); [14]) | also measured
1 | DTVKLMYKGQPMTFRLLLV [Peptide 866.01] |  |  |  |  |  |  |  | IC50 (DRB1*0301 (DR3w17); [1]): 42900 nM; IC50 (DRB1*1101 (DR5w11); [2]): 169 nM; IC50 (DRB5*0101 (DR2w2a); [3]): 7.7 nM; IC50 (DRB1*0101 (DR1); [4]): 23 nM; IC50 (DRB1*0401 (DR4w4); [5]): 176 nM; IC50 (DRB10404 (DR4w14); [6]): 10000 nM; IC50 (DRB1*0701 (DR7); [7]): 3570 nM
2 | YASFVSQTAQRLFY-NH2 [Peptide 717.03] | 15800 nM | 2500 nM | 8 nM | 1.9 nM | 11 nM | 6250 nM | 25 nM | 
3 | YAEFQAEKTLKAAS-NH2 [Peptide 717.05] | 4000 nM | 48.8 nM | 339 nM | 8.2 nM | 6.4 nM | 29.4 nM |  | 
4 | DVFKELKVHHANENI [Peptide 519.00] |  |  |  |  |  |  |  | IC50 (DRB1*0301 (DR3w17); [15]): 150000 nM; IC50 (DRB1*1101 (DR5w11); [16]): 118 nM; IC50 (DRB5*0101 (DR2w2a); [17]): 571 nM; IC50 (DRB1*0101 (DR1); [18]): 9.6 nM; IC50 (DRB1*0401 (DR4w4); [19]): 40.9 nM; IC50 (DRB10404 (DR4w14); [20]): 250 nM; IC50 (DRB1*0701 (DR7); [21]): 463 nM
5 | VHHANENIFYCPIAIMSALA [Peptide 703.03] |  |  |  |  |  |  |  | IC50 (DRB1*0301 (DR3w17); [15]): 42900 nM; IC50 (DRB1*1101 (DR5w11); [16]): 1110 nM; IC50 (DRB5*0101 (DR2w2a); [17]): > 10000 nM; IC50 (DRB1*0101 (DR1); [18]): 147 nM; IC50 (DRB1*0401 (DR4w4); [19]): 63.3 nM; IC50 (DRB10404 (DR4w14); [20]): 333 nM; IC50 (DRB1*0701 (DR7); [21]): > 6250 nM
6 | LVEALYLVSGERGFFYTPKT [Peptide 734.03] | 1570 nM | 2500 nM | 1820 nM | 39.7 nM | 1150 nM | 704 nM | 926 nM | 
7 | CC[C@H](C)[C@H](NC(=O)[C@@H](NC(=O)[C@@H](NC(=O)[C@H](CCC(=O)O)NC(=O)[C@H](CCCNC(=N)N)NC(=O)CN)[C@@H](C)O)C(C)C)C(=O)N[C@@H](CCC(=O)O)C(=O)N[C@@H](Cc1ccc(O)cc1)C(=O)N[C@@H](CC(C)C)C(=O)N[C@H](C(=O)N[C@@H](CO)C(=O)N[C@@H](Cc1ccccc1)C(=O)NCC(=O)N[C@H](C(=O)N[C@@H](Cc1c[nH]c2ccccc12)C(=O)O)C(C)C)C(C)C [Peptide 802.04] | 16700 nM | 1540 nM | 1330 nM | 12.8 nM | 833 nM | 32.3 nM | 67.6 nM | 
8 | NPVVHFFKNIVTPRTPPPS [Peptide 765.09] | 50000 nM | 18.7 nM | 158 nM | 13.5 nM | 7.4 nM | 35.7 nM | 66.8 nM | 
9 | YAAYVKLTAARKFA-NH2 [Peptide 806.03] | 23100 nM | 1.3 nM | 0.7 nM | 2.1 nM | 21.4 nM | 4550 nM | 4.4 nM | 
10 | CC(C)C[C@H](NC(=O)[C@@H](NC(=O)[C@H](C)NC(=O)[C@H](C)NC(=O)[C@H](CCCCN)NC(=O)[C@H](C)NC(=O)[C@H](Cc1ccccc1)NC(=O)[C@H](CCCCN)NC(=O)[C@@H](C)N)[C@@H](C)O)C(=O)N[C@@H](CCCCN)C(=O)N[C@@H](C)C(=O)N[C@@H](C)C(=O)N[C@H](C)C(N)=O [Peptide 871.01] (H-[dA]KFAKAATLKAA[dA]-NH2) |  |  |  |  |  |  |  | IC50 (DRB1*0301 (DR3w17); [1]): 37500 nM; IC50 (DRB1*1101 (DR5w11); [2]): 14.6 nM; IC50 (DRB5*0101 (DR2w2a); [3]): 14.7 nM; IC50 (DRB1*0101 (DR1); [4]): 4.2 nM; IC50 (DRB1*0401 (DR4w4); [5]): 3.1 nM; IC50 (DRB10404 (DR4w14); [6]): 9.6 nM; IC50 (DRB1*0701 (DR7); [7]): 301 nM
